According to BindingDB's records for doi:10.1016/s0960-894x(99)00444-8 (The University of Montana, 1999):

Molecular target: Vesicular glutamate transporter 1 (Rattus norvegicus) (UniProt Q62634)
Test: Compound was evaluated for the binding affinity against glutamate vesicular transport (GVT)

Vesicular glutamate transporter 1 (Rattus norvegicus), sequence (Q62634 whole entry, looked up): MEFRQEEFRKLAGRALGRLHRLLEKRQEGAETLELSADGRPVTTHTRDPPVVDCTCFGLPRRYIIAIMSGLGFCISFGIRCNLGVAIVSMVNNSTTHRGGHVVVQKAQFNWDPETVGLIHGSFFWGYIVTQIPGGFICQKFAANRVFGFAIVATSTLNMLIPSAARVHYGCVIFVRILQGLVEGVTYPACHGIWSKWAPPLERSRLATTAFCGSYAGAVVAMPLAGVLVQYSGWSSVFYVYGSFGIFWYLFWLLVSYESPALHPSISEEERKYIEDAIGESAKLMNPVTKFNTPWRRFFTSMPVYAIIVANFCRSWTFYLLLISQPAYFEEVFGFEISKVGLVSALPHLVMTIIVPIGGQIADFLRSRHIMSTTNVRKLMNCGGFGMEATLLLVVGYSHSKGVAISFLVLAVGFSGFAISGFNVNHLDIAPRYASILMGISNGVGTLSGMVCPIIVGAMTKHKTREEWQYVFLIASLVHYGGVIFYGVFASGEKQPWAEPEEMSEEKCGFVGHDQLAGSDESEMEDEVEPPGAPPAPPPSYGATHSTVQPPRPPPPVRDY

Ki: 204 µM
Compound: O=C(O)c1cc(C(=O)O)c2cc(OCc3ccccc3)ccc2n1 [6-Benzyloxy-quinoline-2,4-dicarboxylic acid]
